From ChEMBL document CHEMBL1139995, “SAR of the arylpiperazine moiety of obeline somatostatin sst1 receptor antagonists” (Bioorg Med Chem Lett, 2007) come the findings set out here.

Structures are written as SMILES.

Series [1] deals with Somatostatin receptor type 1 (Rattus norvegicus, UniProt P28646). Briefly: Displacement of [125I]SRIF14 from rat sst1 receptor from rat brain cortex membrane.
In series [2] the target is Somatostatin receptor type 2 (Rattus norvegicus, UniProt P30680). The experiment in a line: Displacement of [125I]SRIF14 from rat sst2 receptor from rat brain cortex membrane. (Loss of bound radioactivity is the signal in a displacement assay; it reports binding, not function.)
Series [3] in a line: Ratio of drug level in brain to plasma in mouse at 10 mg/kg, po after 1 hr. Type of series: ADME, organism-based. Also noted: dose 10 mg/kg, route oral. The conditions noted are these: brain and plasma, read-out: BPR.
The species entered for series [4] is Rattus norvegicus. The experiment in a line: Selectivity for rat sst1 receptor over rat sst2 receptor.

Chain of Somatostatin receptor type 1 (P28646 whole entry): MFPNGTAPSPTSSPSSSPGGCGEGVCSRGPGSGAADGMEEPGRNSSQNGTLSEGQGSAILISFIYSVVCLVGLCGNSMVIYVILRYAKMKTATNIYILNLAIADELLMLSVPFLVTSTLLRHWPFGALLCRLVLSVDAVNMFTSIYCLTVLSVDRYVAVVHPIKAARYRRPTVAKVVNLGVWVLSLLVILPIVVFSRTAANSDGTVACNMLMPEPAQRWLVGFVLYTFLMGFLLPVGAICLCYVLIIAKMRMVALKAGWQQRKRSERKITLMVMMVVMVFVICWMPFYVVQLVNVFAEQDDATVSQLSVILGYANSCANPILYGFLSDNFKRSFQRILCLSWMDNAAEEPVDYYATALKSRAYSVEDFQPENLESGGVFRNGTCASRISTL
Chain of Somatostatin receptor type 2 (P30680 whole entry): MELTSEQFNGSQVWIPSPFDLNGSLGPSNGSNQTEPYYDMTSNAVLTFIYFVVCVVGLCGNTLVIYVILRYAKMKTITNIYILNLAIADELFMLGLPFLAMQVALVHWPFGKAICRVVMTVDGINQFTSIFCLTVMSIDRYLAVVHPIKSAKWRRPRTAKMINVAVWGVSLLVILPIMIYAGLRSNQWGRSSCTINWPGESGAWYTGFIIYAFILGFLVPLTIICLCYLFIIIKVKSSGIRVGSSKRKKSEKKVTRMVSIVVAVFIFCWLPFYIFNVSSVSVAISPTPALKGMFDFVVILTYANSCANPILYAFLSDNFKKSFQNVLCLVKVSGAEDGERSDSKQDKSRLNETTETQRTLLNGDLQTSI

On to `COc1cccc2c1C[C@H]1C[C@@H](C(=O)N3CCN(c4ccc(C#N)cn4)CC3)CN(C)[C@@H]1C2`, for which the Kd – broadly, the constant that tells how readily two partners part at equilibrium – was 3.55 nM in series [1] and 10200 nM in series [2].
Taken in the same sequence, the figures for `COc1cccc2c1C[C@H]1C[C@@H](C(=O)N3CC=C(c4ncccn4)CC3)CN(C)[C@@H]1C2` were 490 nM and 2400 nM.
In the case of `COc1cccc2c1C[C@H]1C[C@@H](C(=O)N3CC=C(c4ccc(Cl)cc4)CC3)CN(C)[C@@H]1C2`, the Kd in series [1] is 81.3 nM; in series [2], 2510 nM.
Consider `COc1cccc2c1C[C@H]1C[C@@H](C(=O)N3CC=C(c4ccccn4)CC3)CN(C)[C@@H]1C2`, for which the Kd in series [1] was 30.2 nM; in series [2] it was 2340 nM.
For the compound `COc1cccc2c1C[C@H]1C[C@@H](C(=O)N3CCc4c([nH]c5ccccc45)C3)CN(C)[C@@H]1C2`, the Kd was 70.8 nM in series [1] and 6170 nM in series [2].
On to `COc1cccc2c1C[C@H]1C[C@@H](C(=O)N3CCN(c4ccc5ccccc5n4)CC3)CN(C)[C@@H]1C2`, for which the Kd is 27.5 nM in series [1] and 2090 nM in series [2].
Turning to `COc1cccc2c1C[C@H]1C[C@@H](C(=O)N3CCN(c4cccc(C(F)(F)F)c4)CC3)CN(C)[C@@H]1C2`, the equilibrium dissociation constant (Kd) was 23.4 nM in series [1] and 13200 nM in series [2].
Regarding `COc1cccc2c1C[C@H]1C[C@@H](C(=O)N3CCN(c4ccc5nccnc5n4)CC3)CN(C)[C@@H]1C2`, the results for the Kd in series [1] and in series [2] were 5.75 nM and 14100 nM, respectively.
Consider `COc1cccc2c1C[C@H]1C[C@@H](C(=O)N3CCN(c4ccc(C(=O)O)cc4)CC3)CN(C)[C@@H]1C2`, for which the Kd in series [1] was 81300 nM; in series [2] it was 251000 nM.
Regarding `COc1cccc2c1C[C@H]1C[C@@H](C(=O)N3CCN(c4ccc5nsnc5c4)CC3)CN(C)[C@@H]1C2`, in series [3], the Kp at 1 h amounted to 4.8. Besides, the Kd in series [1] was 10.7 nM; in series [2], 4270 nM.
As to `COc1cccc2c1C[C@H]1C[C@@H](C(=O)N3CCN(c4ncccc4OS(=O)(=O)C(F)(F)F)CC3)CN(C)[C@@H]1C2`, the Kd is 562 nM in series [1] and 10500 nM in series [2].
Regarding `COc1cccc2c1C[C@H]1C[C@@H](C(=O)N3CCN(c4ccccc4F)CC3)CN(C)[C@@H]1C2`, the dissociation constant (Kd) was 17.8 nM in series [1] and 18600 nM in series [2].
Consider `COc1cccc2c1C[C@H]1C[C@@H](C(=O)N3CCN(c4ccc(S(N)(=O)=O)cc4)CC3)CN(C)[C@@H]1C2`, for which the Kd in series [1] was 589 nM; in series [2] it was 9120 nM.
For the compound `COc1cccc2c1C[C@H]1C[C@@H](C(=O)N3CCN(c4ccc([N+](=O)[O-])cc4S(C)(=O)=O)CC3)CN(C)[C@@H]1C2`, the figures for the Kd in series [1] and in series [2] were 1.74 nM and 5250 nM, respectively.
For the compound `COc1cccc2c1C[C@H]1C[C@@H](C(=O)N3CCN(c4ccc5nonc5c4)CC3)CN(C)[C@@H]1C2`, the Kd in series [1] was 1.7 nM; in series [2], 3470 nM.
On the same counts, the results for `COc1cccc2c1C[C@H]1C[C@@H](C(=O)N3CCN(c4cc(C)nc5ccccc45)CC3)CN(C)[C@@H]1C2` are 692 nM and 5250 nM.
As to `COc1cccc2c1C[C@H]1C[C@@H](C(=O)N3CCN(c4ccncc4)CC3)CN(C)[C@@H]1C2`, the Kd in series [1] was 1860 nM; in series [2], 17800 nM.
Turning to `COc1cccc2c1C[C@H]1C[C@@H](C(=O)N3CCN(c4cccc5nonc45)CC3)CN(C)[C@@H]1C2`, the Kd is 3.63 nM in series [1] and 3630 nM in series [2].
On the same counts, the results for `COc1cccc2c1C[C@H]1C[C@@H](C(=O)N3CCCN(c4ccccn4)CC3)CN(C)[C@@H]1C2` are 209 nM and 34700 nM.
Taken in the same sequence, the figures for `COc1cccc2c1C[C@H]1C[C@@H](C(=O)N3CCN(c4ccc(C(F)(F)F)cn4)CC3)CN(C)[C@@H]1C2` were 105 nM and 20000 nM.
In the case of `COc1cccc2c1C[C@H]1C[C@@H](C(=O)N3CCN(c4ccc([N+](=O)[O-])cc4C#N)CC3)CN(C)[C@@H]1C2`, the Kd in series [1] was 3.24 nM; in series [2], 4370 nM.
Regarding `COc1cccc2c1C[C@H]1C[C@@H](C(=O)N3CCN(c4ccc(C#N)cc4)CC3)CN(C)[C@@H]1C2`, the Kd in series [1] was 8.13 nM; in series [2] it was 10000 nM.
Regarding `O=[As][As+](=O)[O-]` (centres undefined) [ARSENIC TRIOXIDE], the results for the Kd in series [1] and in series [2] were 52.5 nM and 25100 nM, respectively.
On the same counts, the results for `COc1cccc2c1C[C@H]1C[C@@H](C(=O)N3CCN(c4ccc(C(N)=O)cc4)CC3)CN(C)[C@@H]1C2` are 1510 nM and 16600 nM.
With `COc1cccc2c1C[C@H]1C[C@@H](C(=O)N3CCN(c4cc5ccccc5cn4)CC3)CN(C)[C@@H]1C2`, the Kd in series [1] is 288 nM; in series [2] it was 5500 nM.
Consider `COc1cccc2c1C[C@H]1C[C@@H](C(=O)N3CCN(c4cccc(F)c4C#N)CC3)CN(C)[C@@H]1C2`, for which the figures for the Kd in series [1] and in series [2] were 2.82 nM and 16600 nM, respectively.
For `COc1cccc2c1C[C@H]1C[C@@H](C(=O)N3CCN(c4ccccn4)CC3)CN(C)[C@@H]1C2`, the values for the Kd in series [1] and in series [2] were 17.4 nM and 10200 nM, respectively.
Regarding `COc1cccc2c1C[C@H]1C[C@@H](C(=O)N3CCN(c4cccc([N+](=O)[O-])c4)CC3)CN(C)[C@@H]1C2`, the Kd is 1.32 nM in series [1] and 6760 nM in series [2].
As for `COc1cccc2c1C[C@H]1C[C@@H](C(=O)N3CCN(c4cccc(OCc5ccccc5)n4)CC3)CN(C)[C@@H]1C2`, the Kd in series [1] was 105 nM; in series [2], 6610 nM.
Take `COc1cccc2c1C[C@H]1C[C@@H](C(=O)N3CCN(c4cccc5ccccc45)CC3)CN(C)[C@@H]1C2`: the values for the Kd in series [1] and in series [2] were 87.1 nM and 5500 nM, respectively.
Taken in the same sequence, the figures for `COc1cccc2c1C[C@H]1C[C@@H](C(=O)N3CCN(c4ccccc4[N+](=O)[O-])CC3)CN(C)[C@@H]1C2` were 1.29 nM and 11000 nM.
In the case of `COc1cccc2c1C[C@H]1C[C@@H](C(=O)N3CCN(c4cc5nccnc5cn4)CC3)CN(C)[C@@H]1C2`, the Kd in series [1] was 355 nM; in series [2], 7080 nM.
As for `COc1cccc2c1C[C@H]1C[C@@H](C(=O)N3CCN(c4ccc(C(F)(F)F)cc4[N+](=O)[O-])CC3)CN(C)[C@@H]1C2`, the Kd is 110 nM in series [1] and 4900 nM in series [2].
Taken in the same sequence, the figures for `COc1cccc2c1C[C@H]1C[C@@H](C(=O)N3CCN(Cc4ccccc4)CC3)CN(C)[C@@H]1C2` were 457 nM and 9120 nM.
`COc1cccc2c1C[C@H]1C[C@@H](C(=O)N3CCN(c4cccc5nsnc45)CC3)CN(C)[C@@H]1C2`: the Kd in series [1] was 2.75 nM; in series [2], 10000 nM.
Taken in the same sequence, the figures for `COc1cccc2c1C[C@H]1C[C@@H](C(=O)N3CCN(c4ccc(O)cc4)CC3)CN(C)[C@@H]1C2` were 631 nM and 24500 nM.
For `COc1cccc2c1C[C@H]1C[C@@H](C(=O)N3CCN(c4ccc5nsnc5n4)CC3)CN(C)[C@@H]1C2`, the Selectivity ratio in series [4] was greater than 4600. In series [3], the Kp at 1 h was determined as 1.8. Also, the Kd in series [1] is 1.23 nM; in series [2], 5750 nM.
Regarding `CCN(CC)C(=O)c1ccc(N2CCN(C(=O)[C@@H]3C[C@@H]4Cc5c(cccc5OC)C[C@H]4N(C)C3)CC2)cc1`, the figures for the Kd in series [1] and in series [2] were 1700 nM and 20000 nM, respectively.
In the case of `COc1cccc2c1C[C@H]1C[C@@H](C(=O)N3CCN(c4cccc(=O)[nH]4)CC3)CN(C)[C@@H]1C2`, the Kd is 7.59 nM in series [1] and 11700 nM in series [2].
For `COc1cccc2c1C[C@H]1C[C@@H](C(=O)N3CCN(c4ccc5nccn5n4)CC3)CN(C)[C@@H]1C2`, the Kd is 87.1 nM in series [1] and 20900 nM in series [2].
In the case of `COc1cccc2c1C[C@H]1C[C@@H](C(=O)N3CCC(n4c(=O)[nH]c5ccccc54)CC3)CN(C)[C@@H]1C2`, the Kd in series [1] is 490 nM; in series [2], 2040 nM.
On the same counts, the results for `COc1cccc2c1C[C@H]1C[C@@H](C(=O)N3CCN(c4ccc(C(F)(F)F)cc4)CC3)CN(C)[C@@H]1C2` are 275 nM and 5130 nM.
In the case of `COc1cccc2c1C[C@H]1C[C@@H](C(=O)N3CCN(c4cccc(F)c4)CC3)CN(C)[C@@H]1C2`, the Kd is 3.31 nM in series [1] and 21400 nM in series [2].
As for `COc1cccc2c1C[C@H]1C[C@@H](C(=O)N3CCN(c4ccccc4C#N)CC3)CN(C)[C@@H]1C2`, the Kd in series [1] was 2 nM; in series [2] it was 7410 nM.
Regarding `COc1cccc2c1C[C@H]1C[C@@H](C(=O)N3CCN(c4ccc(S(C)(=O)=O)cc4)CC3)CN(C)[C@@H]1C2`, the values for the Kd in series [1] and in series [2] were 631 nM and 8710 nM, respectively.
For the compound `COc1cccc2c1C[C@H]1C[C@@H](C(=O)N3CCN(c4ccc(F)cc4)CC3)CN(C)[C@@H]1C2`, the Kd is 3.39 nM in series [1] and 26300 nM in series [2].
With `COc1cccc2c1C[C@H]1C[C@@H](C(=O)N3CCN(c4ccc(C(C)=O)cc4)CC3)CN(C)[C@@H]1C2`, the Kd was 151 nM in series [1] and 8710 nM in series [2].
On the same counts, the results for `COc1cccc2c1C[C@H]1C[C@@H](C(=O)N3CCNCC3)CN(C)[C@@H]1C2` are 10500 nM and 43700 nM.
As to `COc1cccc2c1C[C@H]1C[C@@H](C(=O)N3CCCN(c4ccc([N+](=O)[O-])cc4)CC3)CN(C)[C@@H]1C2`, the Kd in series [1] is 263 nM; in series [2], 22400 nM.
For `COc1cccc2c1C[C@H]1C[C@@H](C(=O)N3CCN(c4cccc(=O)n4C)CC3)CN(C)[C@@H]1C2`, the Kd is 1.82 nM in series [1] and 11000 nM in series [2].
For the compound `COc1cccc2c1C[C@H]1C[C@@H](C(=O)N3CCN(c4cccc5ccc(C#N)cc45)CC3)CN(C)[C@@H]1C2`, the Kd in series [1] was 8.71 nM; in series [2], 5250 nM.
`COC(=O)c1ccc(N2CCN(C(=O)[C@@H]3C[C@@H]4Cc5c(cccc5OC)C[C@H]4N(C)C3)CC2)cc1`: the values for the Kd in series [1] and in series [2] were 162 nM and 14800 nM, respectively.
In the case of `COc1cccc2c1C[C@H]1C[C@@H](C(=O)N3CCN(c4ncccn4)CC3)CN(C)[C@@H]1C2`, the Kd in series [1] was 468 nM; in series [2], 27500 nM.
